In ChEMBL document CHEMBL4190182 (Medchemcomm, 2016):

How the values were obtained:
[1] = target: T1, Kappa-type opioid receptor (Cavia porcellus, UniProt P41144); test: Displacement of [3H]U-69,593 from kappa opioid receptor in guinea pig brain membranes by scintillation counting analysis; assay type: cell membranes, Membrane
[2] = target: T2, Sigma intracellular receptor 2 (Rattus norvegicus, UniProt Q5U3Y7); test: Displacement of [3H]DTG from sigma2 receptor in Sprague-Dawley rat liver membranes after 120 mins by scintillation counting analysis; assay type: cell membranes, Membrane
T2 sequence (Q5U3Y7 whole entry): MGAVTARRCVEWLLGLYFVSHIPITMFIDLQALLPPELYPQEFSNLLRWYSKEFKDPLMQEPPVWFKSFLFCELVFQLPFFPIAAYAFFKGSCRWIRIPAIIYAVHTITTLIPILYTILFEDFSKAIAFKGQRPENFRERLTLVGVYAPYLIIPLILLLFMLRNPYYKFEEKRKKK

[3] = target: T1, Kappa-type opioid receptor; test: Displacement of [3H]U-69,593 from kappa opioid receptor in guinea pig brain membranes after 120 mins by scintillation counting analysis; assay type: cell membranes, Membrane
[4] = target: Delta-type opioid receptor (Rattus norvegicus, UniProt P33533); test: Displacement of [3H]DPDPE from delta opioid receptor in Sprague-Dawley rat brain membranes after 120 mins by scintillation counting analysis; assay type: cell membranes, Membrane
Mu-type opioid receptor = Mu-type opioid receptor (Cavia porcellus, UniProt P97266); test: Displacement of [3H]DAMGO from mu opioid receptor in guinea pig brain membranes after 120 mins by scintillation counting analysis; assay type: cell membranes, Membrane
[5] = target: Sigma non-opioid intracellular receptor 1 (Cavia porcellus, UniProt Q60492); test: Displacement of [3H]-(+)-Pentazocine from sigma1 receptor in guinea pig brain cortex membranes after 120 mins by scintillation counting analysis; assay type: cell membranes
[6] = target: Kappa-type opioid receptor (Homo sapiens) (UniProt P41145); test: Agonist activity at kappa opioid receptor in HEK293 cells at 1 uM after 30 mins by [35S]-GTPgammaS binding assay relative to control; assay type: functional, cell-based
Chain of Kappa-type opioid receptor (Homo sapiens) (P41145 whole entry): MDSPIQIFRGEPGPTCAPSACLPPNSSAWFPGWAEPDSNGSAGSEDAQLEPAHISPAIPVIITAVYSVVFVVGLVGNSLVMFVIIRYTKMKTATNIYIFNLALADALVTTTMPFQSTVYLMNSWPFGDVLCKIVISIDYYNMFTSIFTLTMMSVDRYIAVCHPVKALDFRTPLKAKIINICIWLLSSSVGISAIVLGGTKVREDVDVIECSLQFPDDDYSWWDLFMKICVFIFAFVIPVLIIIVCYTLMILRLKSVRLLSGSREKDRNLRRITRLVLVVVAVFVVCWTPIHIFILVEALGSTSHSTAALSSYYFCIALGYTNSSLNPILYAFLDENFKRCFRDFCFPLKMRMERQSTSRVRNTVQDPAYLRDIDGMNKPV

Chain of Mu-type opioid receptor (P97266 whole entry): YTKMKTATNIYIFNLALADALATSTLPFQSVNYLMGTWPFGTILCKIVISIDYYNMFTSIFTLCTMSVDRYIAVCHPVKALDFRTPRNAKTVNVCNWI
Chain of Delta-type opioid receptor (P33533 whole entry): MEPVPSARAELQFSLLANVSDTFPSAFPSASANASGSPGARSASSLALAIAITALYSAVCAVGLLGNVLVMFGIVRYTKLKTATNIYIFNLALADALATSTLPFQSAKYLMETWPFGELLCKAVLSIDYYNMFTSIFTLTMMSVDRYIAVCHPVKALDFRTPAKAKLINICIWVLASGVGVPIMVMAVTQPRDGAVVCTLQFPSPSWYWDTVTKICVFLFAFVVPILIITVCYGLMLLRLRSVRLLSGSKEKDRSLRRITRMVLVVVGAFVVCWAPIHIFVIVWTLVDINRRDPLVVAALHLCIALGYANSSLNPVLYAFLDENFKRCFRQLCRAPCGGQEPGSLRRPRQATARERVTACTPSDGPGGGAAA
Chain of Sigma non-opioid intracellular receptor 1 (Q60492 whole entry): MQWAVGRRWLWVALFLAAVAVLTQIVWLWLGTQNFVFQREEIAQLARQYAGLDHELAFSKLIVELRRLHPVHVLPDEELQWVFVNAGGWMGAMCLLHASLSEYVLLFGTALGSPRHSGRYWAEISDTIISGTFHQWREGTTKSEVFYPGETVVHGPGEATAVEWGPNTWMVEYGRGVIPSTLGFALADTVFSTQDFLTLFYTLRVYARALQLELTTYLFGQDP
T1 sequence (P41144 whole entry): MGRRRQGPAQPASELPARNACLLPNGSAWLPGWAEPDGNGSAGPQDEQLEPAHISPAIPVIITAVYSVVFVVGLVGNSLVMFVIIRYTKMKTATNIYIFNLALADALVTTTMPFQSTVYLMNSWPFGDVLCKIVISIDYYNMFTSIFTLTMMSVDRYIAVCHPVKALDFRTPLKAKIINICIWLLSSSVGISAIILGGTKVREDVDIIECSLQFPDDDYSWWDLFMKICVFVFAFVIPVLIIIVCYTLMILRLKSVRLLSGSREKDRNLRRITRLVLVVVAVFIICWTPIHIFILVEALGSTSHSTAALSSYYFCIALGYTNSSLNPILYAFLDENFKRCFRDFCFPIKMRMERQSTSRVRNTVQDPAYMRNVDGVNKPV

Row | Structure (SMILES) | Ki [1] | Ki [2] | Ki [3] | Ki [4] | Ki (Mu-type opioid receptor) | Ki [5] | Activity [6]
1 | COC(=O)N1CCC(NC(=O)Cc2ccc(Cl)c(Cl)c2)C([C@@H](C)N2CCCC2)C1 (stereo partly drawn) | 0.31 nM |  |  |  |  |  | 
2 | CCN1CC2OCCN(C(=O)Cc3ccc(Cl)c(Cl)c3)C2C(N2CCCC2)C1 (racemic) |  | 102 nM | 1300 nM | > 1000 nM | > 1000 nM | 391 nM | 
3 | O=C(Cc1ccc(Cl)c(Cl)c1)N1CC2OCCN(C(=O)Cc3ccc(Cl)c(Cl)c3)C2C(N2CCCC2)C1 (racemic) |  | > 1000 nM |  |  |  |  | 
4 | O=C(Cc1ccc(Cl)c(Cl)c1)N1CCOC2CN(Cc3ccccc3)CC(N3CCCC3)C21 (racemic) |  | > 1000 nM | 912 nM | 260 nM | 261 nM | 983 nM | 
5 | O=C(Cc1ccc(Cl)c(Cl)c1)N1CCOC2CN(Cc3cccnc3)CC(N3CCCC3)C21 (racemic) |  | > 1000 nM | > 1000 nM | 666 nM | 633 nM | 291 nM | 
6 | O=C(Cc1ccc(Cl)c(Cl)c1)N1CCOC2CNCC(N3CCCC3)C21 (racemic) |  | > 1000 nM | 132 nM | > 1000 nM | > 1000 nM | > 1000 nM | 27%
7 | CN1CC2OCCN(C(=O)Cc3ccc(Cl)c(Cl)c3)C2C(N2CCCC2)C1 (racemic) |  | > 1000 nM | 286 nM | > 1000 nM | > 1000 nM | > 1000 nM | 
8 | O=C1COC2CN(C(=O)Cc3ccc(Cl)c(Cl)c3)CC(N3CCCC3)C2N1 (racemic) |  | > 1000 nM | > 1000 nM | > 1000 nM | > 1000 nM | > 1000 nM | 
9 | CCCCN1CC2OCCN(C(=O)Cc3ccc(Cl)c(Cl)c3)C2C(N2CCCC2)C1 (racemic) |  | 316 nM | > 1000 nM | > 1000 nM | 502 nM | 192 nM | 
10 | O=C(Cc1ccc(Cl)c(Cl)c1)N1CCOC2CN(C3CCCC3)CC(N3CCCC3)C21 (racemic) |  | 45 nM | > 1000 nM | 717 nM | 447 nM | 181 nM | 
